Converted amounts (≈) assume the structure as drawn. Read-outs that look alike come from different tables or passages of the source.
Tests used:
[1] = test system: M. suipneumoniae ATCC 25095; experiment: MIC against mycoplasma in vitro; type: cell-based; details: Mesomycoplasma hyopneumoniae, ATCC25095, 144 h
P. mirabilis 889 = experiment: MIC against human bacteria in vitro; type: cell-based; details: Proteus mirabilis; P. mirabilis 889; 5% chocolated horse blood agar, 18 hours; read-out: MIC
M. hyorhinis ATCC 25021 = experiment: MIC against mycoplasma in vitro; type: cell-based; details: Mesomycoplasma hyorhinis, ATCC25021, 144 h
Bord. bronchiseptica B08 = experiment: MIC against veterinary bacteria in vitro; details: Bordetella bronchiseptica, B08, 18 h
Method: (§1) The activity of the compounds of the Examples against various veterinarily important bacteria, was assayed in vitro using two-fold serial dilutions in Diagnostic Sensitivity Test Agar inoculated with 10^4 organisms.

Past. multocida PA2 = experiment: MIC against veterinary bacteria in vitro; details: Pasteurella multocida, PA2, 18 h
Method: as §1

M. dispar NCTC 10125 = experiment: MIC against mycoplasma in vitro; type: cell-based; details: 144 h
Staph. aureus Russell = experiment: MIC against human bacteria in vitro; type: cell-based; details: Staphylococcus aureus; Staph. aureus Russell; 5% chocolated horse blood agar, 18 hours; read-out: MIC
M. suipneumoniae HK(2) = experiment: MIC against mycoplasma in vitro; type: cell-based; details: Mesomycoplasma hyopneumoniae, 144 h
M. hyorhinis ATCC 23234 = experiment: MIC against mycoplasma in vitro; type: cell-based; details: Mesomycoplasma hyorhinis, ATCC23234, 144 h
Past. multocida PA1 = experiment: MIC against veterinary bacteria in vitro; details: Pasteurella multocida, PA1, 18 h
Method: as §1

E. coli E1 = experiment: MIC against veterinary bacteria in vitro; details: Escherichia coli, E1, 18 h
Method: as §1

Strep. pneumoniae CN33 = experiment: MIC against human bacteria in vitro; type: cell-based; details: Streptococcus pneumoniae; Strep. pneumoniae CN33; 5% chocolated horse blood agar, 18 hours; read-out: MIC
S. dublin S7 = experiment: MIC against veterinary bacteria in vitro; details: Salmonella enterica, S7, 18 h
Method: as §1

[2] = test system: Pasteurella multocida 1633; experiment: MIC against human bacteria in vitro; type: cell-based; details: Pasteurella multocida 1633; 5% chocolated horse blood agar, 18 hours; read-out: MIC
E. coli ESS = experiment: MIC against human bacteria in vitro; type: cell-based; details: Escherichia coli; E. coli ESS; 5% chocolated horse blood agar, 18 hours; read-out: MIC
Strep. dysgalactiae SPD1 = experiment: MIC against veterinary bacteria in vitro; details: Streptococcus dysgalactiae, SPD1, 18 h
Method: as §1

M. suipneumoniae TAM 6N = experiment: MIC against mycoplasma in vitro; type: cell-based; details: Mesomycoplasma hyopneumoniae, TAM6N, 144 h
M. suipneumoniae UCD 1 = experiment: MIC against mycoplasma in vitro; type: cell-based; details: Mesomycoplasma hyopneumoniae, UCD1, 144 h
M. suipneumoniae LABER = experiment: MIC against mycoplasma in vitro; type: cell-based; details: Mesomycoplasma hyopneumoniae, 144 h
Strep. faecalis I = experiment: MIC against human bacteria in vitro; type: cell-based; details: Enterococcus faecalis; Strep. faecalis I; 5% chocolated horse blood agar, 18 hours; read-out: MIC
Strep. agalactiae 2788-B = experiment: MIC against human bacteria in vitro; type: cell-based; details: Streptococcus agalactiae; Strep. agalactiae 2788-B; 5% chocolated horse blood agar, 18 hours; read-out: MIC
K. aerogenes A = experiment: MIC against human bacteria in vitro; type: cell-based; details: Klebsiella aerogenes; K. aerogenes A; 5% chocolated horse blood agar, 18 hours; read-out: MIC
Staph. aureus W2827 = experiment: MIC against human bacteria in vitro; type: cell-based; details: Staphylococcus aureus; Staph. aureus W2827; 5% chocolated horse blood agar, 18 hours; read-out: MIC
E. coli NCTC 10418 = experiment: MIC against human bacteria in vitro; type: cell-based; details: Escherichia coli, NCTC10418; E. coli NCTC 10418; agar with 5% chocolated horse blood, 18 hours, 37° C.; read-out: MIC
[3] = test system: Corynebacterium xerosis 9755; experiment: MIC against human bacteria in vitro; type: cell-based; details: Corynebacterium xerosis 9755; 5% chocolated horse blood agar, 18 hours; read-out: MIC
[4] = test system: M. suipneumoniae PW/C/210; experiment: MIC against mycoplasma in vitro; type: cell-based; details: Mesomycoplasma hyopneumoniae, 144 h
Staph. aureus Oxford = experiment: MIC against human bacteria in vitro; type: cell-based; details: Staphylococcus aureus; Staph. aureus Oxford; 5% chocolated horse blood agar, 18 hours; read-out: MIC
Bacillus subtilis 6633 = experiment: MIC against human bacteria in vitro; type: cell-based; details: Bacillus subtilis 6633; 5% chocolated horse blood agar, 18 hours; read-out: MIC
Bord. bronchiseptica B09 = experiment: MIC against veterinary bacteria in vitro; details: Bordetella bronchiseptica, B09, 18 h
Method: as §1

Strep. agalactiae SPA1 = experiment: MIC against veterinary bacteria in vitro; details: Streptococcus agalactiae, SPA1, 18 h
Method: as §1

Sarcina lutea 8340 = experiment: MIC against human bacteria in vitro; type: cell-based; details: Micrococcus luteus; Sarcina lutea 8340; 5% chocolated horse blood agar, 18 hours; read-out: MIC
M. suipneumoniae MS 16 = experiment: MIC against mycoplasma in vitro; type: cell-based; details: Mesomycoplasma hyopneumoniae, MS16, 144 h
[5] = test system: Strep. suis (group D) SPS11; experiment: MIC against veterinary bacteria in vitro; details: Streptococcus suis, 18 h
Method: as §1

[6] = test system: Staph. aureus B4 (pen. resistant); experiment: MIC against veterinary bacteria in vitro; details: Staphylococcus aureus, 18 h
Method: as §1

[7] = M. suipneumoniae TAM 6N, 6 days, 37° C., read-out: MIC

| SMILES | MIC (P. mirabilis 889) [µg/mL] | MIC (M. hyorhinis ATCC 25021) [µg/mL] | MIC (Bord. bronchiseptica B08) [µg/mL] | MIC (Past. multocida PA2) [µg/mL] | MIC (Staph. aureus Russell) [µg/mL] | MIC (M. hyorhinis ATCC 23234) [µg/mL] | MIC (Past. multocida PA1) [µg/mL] | MIC (E. coli E1) [µg/mL] | MIC (Strep. pneumoniae CN33) [µg/mL] | MIC (S. dublin S7) [µg/mL] | MIC [2] [µg/mL] | MIC (E. coli ESS) [µg/mL] | MIC (Strep. dysgalactiae SPD1) [µg/mL] | MIC (Strep. faecalis I) [µg/mL] | MIC (Strep. agalactiae 2788-B) [µg/mL] | MIC (K. aerogenes A) [µg/mL] | MIC (Staph. aureus W2827) [µg/mL] | MIC (E. coli NCTC 10418) [µg/mL] | MIC [3] [µg/mL] | MIC [4] [µg/mL] | also measured |
| --- | --- | --- | --- | --- | --- | --- | --- | --- | --- | --- | --- | --- | --- | --- | --- | --- | --- | --- | --- | --- | --- |
| C/C(=C\c1ncc(-c2cccc([N+](=O)[O-])c2)o1)C[C@@H]1OC[C@H](C[C@@H]2O[C@H]2[C@@H](C)[C@H](C)O)[C@@H](O)[C@H]1O [Example 6, 5-m-nitrophenyl-2-(1-normon-2-yl)oxazole A] | > 128 | 0.025 (≈ 0.0512 µM) | 80 (≈ 164 µM) | 1.25 (≈ 2.56 µM) | 16 (≈ 32.8 µM) | 0.025 (≈ 0.0512 µM) | 10 (≈ 20.5 µM) | > 80 | 4 (≈ 8.19 µM) | > 80 | 16 (≈ 32.8 µM) | 16 (≈ 32.8 µM) | 0.625 (≈ 1.28 µM) | > 128 | 4 (≈ 8.19 µM) | > 128 | 16 (≈ 32.8 µM) | > 128 | > 128 | 0.025 (≈ 0.0512 µM) | MIC [1]: 0.05 µg/mL (≈ 0.102 µM); MIC (M. dispar NCTC 10125): 0.025 µg/mL (≈ 0.0512 µM); MIC (M. suipneumoniae HK(2)): 0.05 µg/mL (≈ 0.102 µM); MIC (M. suipneumoniae TAM 6N; [7]): 0.1 µg/mL (≈ 0.205 µM); MIC (M. suipneumoniae UCD 1): 0.05 µg/mL (≈ 0.102 µM); MIC (M. suipneumoniae LABER): 0.05 µg/mL (≈ 0.102 µM); MIC (Staph. aureus Oxford): 8 µg/mL (≈ 16.4 µM); MIC (Bacillus subtilis 6633): 2 µg/mL (≈ 4.09 µM); MIC (Bord. bronchiseptica B09): 20 µg/mL (≈ 40.9 µM); MIC (Strep. agalactiae SPA1): 2.5 µg/mL (≈ 5.12 µM); MIC (Sarcina lutea 8340): > 128 µg/mL; MIC (M. suipneumoniae MS 16): 0.025 µg/mL (≈ 0.0512 µM); MIC [5]: 10 µg/mL (≈ 20.5 µM) |
| C/C(=C\c1ncc(C)o1)C[C@@H]1OC[C@H](C[C@@H]2O[C@H]2[C@@H](C)[C@H](C)O)[C@@H](O)[C@H]1O [Example 14, 5-Methyl-2-(1-normon-2-yl) oxazole A] | > 128 | 2.5 (≈ 6.55 µM) | > 80 | 10 (≈ 26.2 µM) | 16 (≈ 41.9 µM) | 2.5 (≈ 6.55 µM) | 10 (≈ 26.2 µM) | > 80 | 32 (≈ 83.9 µM) | > 80 | 16 (≈ 41.9 µM) | 32 (≈ 83.9 µM) | 2.5 (≈ 6.55 µM) | > 128 | 32 (≈ 83.9 µM) | > 128 | 16 (≈ 41.9 µM) | > 128 | > 128 | 2.5 (≈ 6.55 µM) | MIC [1]: 2.5 µg/mL (≈ 6.55 µM); MIC (M. dispar NCTC 10125; M. dispar NCTC 10125, 6 days, 37° C., read-out: MIC): 0.5 µg/mL (≈ 1.31 µM); MIC (M. suipneumoniae HK(2)): 5 µg/mL (≈ 13.1 µM); MIC [6]: 10 µg/mL (≈ 26.2 µM); MIC (M. suipneumoniae TAM 6N): 5 µg/mL (≈ 13.1 µM); MIC (M. suipneumoniae UCD 1): 5 µg/mL (≈ 13.1 µM); MIC (M. suipneumoniae LABER): 2.5 µg/mL (≈ 6.55 µM); MIC (Staph. aureus Oxford): 16 µg/mL (≈ 41.9 µM); MIC (Bacillus subtilis 6633): 4 µg/mL (≈ 10.5 µM); MIC (Bord. bronchiseptica B09): > 80 µg/mL; MIC (Strep. agalactiae SPA1): > 80 µg/mL; MIC (Sarcina lutea 8340): > 128 µg/mL; MIC (M. suipneumoniae MS 16): 2.5 µg/mL (≈ 6.55 µM); MIC [5]: > 80 µg/mL |
| C/C(=C\c1ncc(-c2ccc(C=O)cc2)o1)C[C@@H]1OC[C@H](C[C@@H]2O[C@H]2[C@@H](C)[C@H](C)O)[C@@H](O)[C@H]1O [Example 15, 5-p-Formylphenyl-2-(1-normon-2-yl) oxazole A] | > 128 | 0.25 (≈ 0.53 µM) | 80 (≈ 170 µM) | < 0.039 | 8 (≈ 17 µM) | 0.25 (≈ 0.53 µM) | 10 (≈ 21.2 µM) | > 80 | 8 (≈ 17 µM) | > 80 | 32 (≈ 67.9 µM) | 16 (≈ 33.9 µM) | 1.25 (≈ 2.65 µM) | > 128 | 8 (≈ 17 µM) | > 128 | 8 (≈ 17 µM) | > 128 | > 128 | 0.25 (≈ 0.53 µM) | MIC ([1]; M. suipneumoniae ATCC 25095, 6 days, 37° C., read-out: MIC): 0.5 µg/mL (≈ 1.06 µM); MIC (M. dispar NCTC 10125): 0.1 µg/mL (≈ 0.212 µM); MIC (M. suipneumoniae HK(2); M. suipneumoniae HK(2), 6 days, 37° C., read-out: MIC): 0.5 µg/mL (≈ 1.06 µM); MIC [6]: 2.5 µg/mL (≈ 5.3 µM); MIC (M. suipneumoniae TAM 6N; [7]): 0.5 µg/mL (≈ 1.06 µM); MIC (M. suipneumoniae UCD 1; M. suipneumoniae UCD 1, 6 days, 37° C., read-out: MIC): 0.5 µg/mL (≈ 1.06 µM); MIC (M. suipneumoniae LABER; M. suipneumoniae LABER, 6 days, 37° C., read-out: MIC): 0.5 µg/mL (≈ 1.06 µM); MIC (Staph. aureus Oxford): 2 µg/mL (≈ 4.24 µM); MIC (Bacillus subtilis 6633): 2 µg/mL (≈ 4.24 µM); MIC (Bord. bronchiseptica B09): 20 µg/mL (≈ 42.4 µM); MIC (Strep. agalactiae SPA1): 1.25 µg/mL (≈ 2.65 µM); MIC (Sarcina lutea 8340): > 128 µg/mL; MIC (M. suipneumoniae MS 16): 0.25 µg/mL (≈ 0.53 µM); MIC [5]: 20 µg/mL (≈ 42.4 µM) |

— patent US5041567A, “Antibacterial monic acid derivatives” (Beecham Group plc, priority 1982, dated 1991)
